We go through 33 compounds from US20250059174A1, “Pharmaceutical Compounds and Compositions as C-Kit Kinase Inhibitors” (Enanta Pharmaceuticals, Inc., priority 2023, published 2025).

For orientation: EC50 means the concentration giving half of the maximal effect. Higher therefore signals a less potent agent. In general, IC50 refers to the point on the concentration scale where inhibition reaches its midpoint.

Some results are limits rather than exact numbers.

Experiment [1] concerns M-07e cells. As to the kind of experiment: M-07e cellular assay (SCF-mediated cell proliferation). The note with it: Homo sapiens, 72 hours, CellTiter Glo. Type of experiment: cell-based. In short, it runs like this:
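EC50 values reflect inhibition of SCF-driven proliferation, with SCF at EC90 and a 72 h compound exposure, measured as CellTiter Glo luminescence. Growth is scaled between no-SCF (0%) and untreated (100%) wells.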
Background: In ATP-based viability assays light output follows the ATP content of the culture.

For experiment [2], the target named is Recombinant human c-KIT kinase (Homo sapiens (Human), UniProt P10721). As to the kind of experiment: c-KIT kinase chemiluminescence assay (ADP-Glo). Type of experiment: biochemical. The note with it: ATP 50 μM. In short, it runs like this: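 Recombinant human c-KIT preincubated 30 min at RT in 40 mM Tris pH 7.5, 20 mM MgCl2, 0.1 mg/mL BSA, 50 μM DTT, then reacted 2 h at RT with ATP and polyEY substrate. ADP-Glo luminescence readout; activity normalized to high/low controls, IC50 and Hill coefficient from inhibitor-versus-normalized-response fit.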
On the technique in general: In ADP-Glo the light output rises with the ADP produced.

Recombinant human c-KIT kinase, sequence (P10721 26-976): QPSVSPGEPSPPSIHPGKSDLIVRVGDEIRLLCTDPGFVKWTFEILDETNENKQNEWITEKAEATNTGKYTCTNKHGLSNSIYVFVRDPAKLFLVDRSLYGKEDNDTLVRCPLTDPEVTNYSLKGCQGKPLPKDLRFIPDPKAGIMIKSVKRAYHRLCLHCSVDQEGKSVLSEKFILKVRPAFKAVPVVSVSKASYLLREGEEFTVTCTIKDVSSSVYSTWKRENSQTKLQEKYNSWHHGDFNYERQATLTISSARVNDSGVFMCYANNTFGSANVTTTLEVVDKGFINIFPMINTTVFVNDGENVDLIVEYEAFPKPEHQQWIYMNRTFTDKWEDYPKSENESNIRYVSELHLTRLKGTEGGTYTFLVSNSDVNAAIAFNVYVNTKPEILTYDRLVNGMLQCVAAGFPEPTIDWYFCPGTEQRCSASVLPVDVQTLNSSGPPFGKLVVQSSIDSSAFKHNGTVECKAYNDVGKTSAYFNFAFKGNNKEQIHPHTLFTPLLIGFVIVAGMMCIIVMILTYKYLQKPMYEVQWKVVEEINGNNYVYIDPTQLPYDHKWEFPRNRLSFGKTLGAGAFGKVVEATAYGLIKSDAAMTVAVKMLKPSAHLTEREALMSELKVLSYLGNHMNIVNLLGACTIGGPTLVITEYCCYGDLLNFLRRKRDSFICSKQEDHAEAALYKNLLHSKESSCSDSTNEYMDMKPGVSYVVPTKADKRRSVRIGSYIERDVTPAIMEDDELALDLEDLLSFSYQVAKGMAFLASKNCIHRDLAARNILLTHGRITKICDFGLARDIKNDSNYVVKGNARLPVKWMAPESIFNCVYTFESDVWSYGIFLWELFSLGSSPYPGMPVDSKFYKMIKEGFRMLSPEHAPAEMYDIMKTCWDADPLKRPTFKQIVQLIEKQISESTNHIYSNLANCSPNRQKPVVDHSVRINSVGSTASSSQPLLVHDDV

With `Cc1ncc(-c2noc([C@H]3C[C@@](C)(O)C3)n2)cc1NC(=O)c1cnn2ccc(N3CC4(C3)CC(O)(C(F)F)C4)cc12` [Example 281-36], in experiment [1], the EC50 lay in the range of 0.1 to 1 µM. Also, the IC50 in experiment [2] was less than 0.1 µM.

As to `Cc1ncc(-c2noc([C@H]3C[C@](O)(C(F)F)C3)n2)cc1NC(=O)c1cnn2ccc(N3CC4(C3)CC(O)(C(F)F)C4)cc12` [Example 281-37], the EC50 in experiment [1] fell in the range of 0.1 to 1 µM. Moreover, the IC50 in experiment [2] lay in the range of 0.1 to 1 µM.

On to `Cc1ncc(-c2noc([C@H]3C[C@](O)(C(F)(F)F)C3)n2)cc1NC(=O)c1cnn2ccc(N3CC4(C3)CC(O)(C(F)F)C4)cc12` [Example 281-38], for which the EC50 in experiment [1] was less than 0.1 µM. The IC50 in experiment [2] lay in the range of 0.1 to 1 µM.

In turn, `Cc1ccc(-c2noc(C3CN(CC(F)(F)F)C3)n2)cc1NC(=O)c1cnn2ccc(N3CC4(C3)CC(O)(C(F)F)C4)cc12` [Example 281-39] returned an EC50 in experiment [1] of less than 0.1 µM. Further, the 50% inhibitory concentration (IC50) in experiment [2] is less than 0.1 µM.

Compound `Cc1cc(F)c(-c2noc([C@H]3C[C@@H]3F)n2)cc1NC(=O)c1cnn2ccc(N3CC4(COC4)C3)cc12` [Example 281-42] came in with a concentration giving a half-maximal response (EC50) in experiment [1] of less than 0.1 µM. For the same compound, the IC50 in experiment [2] is less than 0.1 µM.

Turning to `COC(=O)N1CC(c2nc(-c3ccc(C)c(NC(=O)c4cnn5ccc(N6CC7(COC7)C6)cc45)c3)no2)C1` [Example 281-43], in experiment [1], the EC50 was less than 0.1 µM. Also, the IC50 in experiment [2] is less than 0.1 µM.

With `Cc1ncc(-c2noc([C@H]3C[C@@H](OC(F)(F)F)C3)n2)cc1NC(=O)c1cnn2ccc(N3CC4(C3)CC(O)(C(F)F)C4)cc12` [Example 281-45], the EC50 in experiment [1] is less than 0.1 µM. For the same compound, in experiment [2], the IC50 was less than 0.1 µM.

In experiment [1], `Cc1ccc(-c2noc(C3CN(C(=O)C4CC4)C3)n2)cc1NC(=O)c1cnn2ccc(N3CC4(COC4)C3)cc12` [Example 281-46] showed an EC50 of 0.1 to 1 µM. Besides, in experiment [2], the IC50 lay in the range of 0.1 to 1 µM.

`Cc1ccc(-c2noc(C3CN(C(=O)C(F)(F)F)C3)n2)cc1NC(=O)c1cnn2ccc(N3CC4(COC4)C3)cc12` [Example 281-47]: the EC50 in experiment [1] was greater than 1 µM. For the same compound, the IC50 in experiment [2] lay within 0.1 to 1 µM.

In the case of `COC(=O)N1CC(c2nc(-c3cc(NC(=O)c4cnn5ccc(N6CC7(COC7)C6)cc45)c(C)cc3F)no2)C1` [Example 281-48], the EC50 in experiment [1] fell in the range of 0.1 to 1 µM. For the same compound, the IC50 in experiment [2] was less than 0.1 µM.

Consider `Cc1ccc(-c2noc(C3CN(C(=O)C4CC(F)(F)C4)C3)n2)cc1NC(=O)c1cnn2ccc(N3CC4(COC4)C3)cc12` [Example 281-49], for which, in experiment [1], the EC50 was greater than 1 µM. The IC50 in experiment [2] was greater than 1 µM.

For `Cc1ccc(-c2noc(C3CN(C(=O)N(C)C4CC4)C3)n2)cc1NC(=O)c1cnn2ccc(N3CC4(COC4)C3)cc12` [Example 281-50], the EC50 in experiment [1] lay within 0.1 to 1 µM. The IC50 in experiment [2] fell in the range of 0.1 to 1 µM.

`Cc1ccc(-c2noc(C3CN(C(=O)N(C)C)C3)n2)cc1NC(=O)c1cnn2ccc(N3CC4(COC4)C3)cc12` [Example 281-51] displayed a 50% effective concentration (EC50) in experiment [1] greater than 1 µM. Also, in experiment [2], the IC50 is greater than 1 µM.

For `COC(=O)N1CC(c2nc(-c3cc(NC(=O)c4cnn5ccc(N6CC7(C6)CC(O)(C(F)F)C7)cc45)c(C)cc3F)no2)C1` [Example 281-52], the EC50 in experiment [1] was less than 0.1 µM. Moreover, the IC50 in experiment [2] was less than 0.1 µM.

`COC(=O)N1CC(c2nc(-c3ccc(C)c(NC(=O)c4cnn5ccc(N6CC7(C6)CC(O)(C(F)F)C7)cc45)c3)no2)C1` [Example 281-53] registered an EC50 in experiment [1] of less than 0.1 µM. The IC50 in experiment [2] was less than 0.1 µM.

The compound `Cc1c(F)cc(-c2noc([C@H]3C[C@@H]3F)n2)cc1NC(=O)c1cnn2ccc(N3CC4(COC4)C3)cc12` [Example 281-54] returned an EC50 in experiment [1] of less than 0.1 µM. The IC50 in experiment [2] was less than 0.1 µM.

In turn, `CC(=O)N1CCC(c2nc(-c3cnc(C)c(NC(=O)c4cnn5ccc(N6CC7(C6)CC(O)(C(F)F)C7)cc45)c3)no2)C1` (stereo not drawn) [Example 281-55] yielded an EC50 in experiment [1] greater than 1 µM. Besides, in experiment [2], the IC50 fell in the range of 0.1 to 1 µM.

As for `Cc1ccc(-c2noc(C3CN(C(=O)NC4CC4)C3)n2)cc1NC(=O)c1cnn2ccc(N3CC4(COC4)C3)cc12` [Example 281-56], the EC50 in experiment [1] is greater than 1 µM. In addition, the IC50 in experiment [2] was greater than 1 µM.

For `Cc1cc(F)c(-c2noc([C@H]3C[C@@H](OC(F)(F)F)C3)n2)cc1NC(=O)c1cnn2ccc(N3CC4(COC4)C3)cc12` [Example 281-57], the EC50 in experiment [1] lay within 0.1 to 1 µM. For the same compound, the IC50 in experiment [2] is less than 0.1 µM.

In experiment [1], `Cc1cc(F)c(-c2noc([C@H]3C[C@@H]3C(F)F)n2)cc1NC(=O)c1cnn2ccc(N3CC4(COC4)C3)cc12` [Example 281-59] came in with an EC50 of 0.1 to 1 µM. Also, in experiment [2], the IC50 is less than 0.1 µM.

As to `Cc1ncc(-c2noc(C3C[C@@H]3C(F)F)n2)cc1NC(=O)c1cnn2ccc(N3CC4(COC4)C3)cc12` (stereo partly drawn) [Example 281-60], in experiment [1], the EC50 is 0.1 to 1 µM. Also, the IC50 in experiment [2] fell in the range of 0.1 to 1 µM.

In experiment [1], `Cc1ccc(-c2noc(C3CN(C(=O)N4CC(F)(F)C4)C3)n2)cc1NC(=O)c1cnn2ccc(N3CC4(COC4)C3)cc12` [Example 281-61] showed an EC50 of 0.1 to 1 µM. The IC50 in experiment [2] is greater than 1 µM.

Compound `Cc1ncc(-c2noc([C@H]3C[C@@H](C(F)(F)F)C3)n2)cc1NC(=O)c1cnn2ccc(N3CC4(C3)CC(O)(C(F)F)C4)cc12` [Example 281-62] displayed an EC50 in experiment [1] of less than 0.1 µM. In experiment [2], the IC50 was less than 0.1 µM.

`Cc1ncc(-c2noc([C@H]3C[C@@H]3F)n2)cc1NC(=O)c1cnn2ccc(N3CC4(C3)CC(O)(C(F)F)C4)cc12` [Example 281-63] yielded an EC50 in experiment [1] of less than 0.1 µM. Moreover, in experiment [2], the IC50 was 0.1 to 1 µM.

For the compound `Cc1ncc(-c2noc([C@H]3C[C@@H]3C(F)F)n2)cc1NC(=O)c1cnn2ccc(N3CC4(C3)CC(O)(C(F)F)C4)cc12` [Example 281-64], the EC50 in experiment [1] was less than 0.1 µM. Besides, the IC50 in experiment [2] was less than 0.1 µM.

In experiment [1], `Cc1ccc(-c2noc([C@H]3C[C@@H]3F)n2)c(F)c1NC(=O)c1cnn2ccc(N3CC4(COC4)C3)cc12` [Example 281-65] came in with an EC50 of less than 0.1 µM. For the same compound, the IC50 in experiment [2] is less than 0.1 µM.

On to `Cc1ncc(-c2noc([C@H]3C[C@H](C(F)(F)F)C3)n2)cc1NC(=O)c1cnn2ccc(N3CC4(COC4)C3)cc12` [Example 281-66], for which, in experiment [1], the EC50 was less than 0.1 µM. In addition, the IC50 in experiment [2] fell in the range of 0.1 to 1 µM.

Consider `Cc1ncc(-c2noc(C3CC(F)(F)C3)n2)cc1NC(=O)c1cnn2ccc(N3CC4(COC4)C3)cc12` [Example 281-67], for which, in experiment [1], the EC50 was less than 0.1 µM. The concentration for half-maximal inhibition (IC50) in experiment [2] fell in the range of 0.1 to 1 µM.

On to `Cc1ncc(-c2noc([C@H]3C[C@H](C(F)(F)F)C3)n2)cc1NC(=O)c1cnn2ccc(N3CC4(C3)CC(O)(C(F)F)C4)cc12` [Example 281-68], for which the EC50 in experiment [1] was less than 0.1 µM. Also, the IC50 in experiment [2] is less than 0.1 µM.

`Cc1ncc(-c2noc(C3CC(F)(F)C3)n2)cc1NC(=O)c1cnn2ccc(N3CC4(C3)CC(O)(C(F)F)C4)cc12` [Example 281-69]: the EC50 in experiment [1] is less than 0.1 µM. In experiment [2], the IC50 lay within 0.1 to 1 µM.

As to `Cc1nnc(N2CC(c3nc(-c4cnc(C)c(NC(=O)c5cnn6ccc(N7CC8(C7)CC(O)(C(F)F)C8)cc56)c4)no3)C2)o1` [Example 281-70], the EC50 in experiment [1] was greater than 1 µM. Besides, the IC50 in experiment [2] was greater than 1 µM.

As to `Cc1nnc(N2CC(c3nc(-c4cnc(C)c(NC(=O)c5cnn6ccc(N7CC8(COC8)C7)cc56)c4)no3)C2)o1` [Example 281-71], the EC50 in experiment [1] was greater than 1 µM. Further, the IC50 in experiment [2] was greater than 1 µM.

Regarding `CC(=O)N1CCC(c2nc(-c3cnc(C)c(NC(=O)c4cnn5ccc(N6CC7(C6)CC(O)(C(F)F)C7)cc45)c3)no2)CC1` [Example 281-72], the EC50 in experiment [1] is greater than 1 µM. Further, the IC50 in experiment [2] was greater than 1 µM.
